Measurements as given in patent US9567642B2, “Methods and products related to targeted cancer therapy” (Massachusetts Institute of Technology, priority 2012, dated 2017).

Columns and labels:
[1] = test system: p53 wild type or p53 mutant cells; assay: Q-RT-PCR of doxorubicin induced p21 and CD80 mRNA; format: cell-based, human; conditions: set of p53 wild type or p53 mutant cells, FIG. 14
Method: Tumors were isolated from Kras^LA2/+; Trp53^LSL/LSL; Rosa26^CreERT2 animals, dissociated with collagenase and trypsin for one hour at 37° C., and then grown in DME plus 10% fetal bovine serum. Human cell lines were obtained from American Type Culture Collection and grown per manufacturer recommendations.
RNA was isolated from cultured cells with Trizol reagent following manufacturer protocol. Complementary DNA was generated from 1 μg total RNA using High Capacity RT-PCR Kit (Roche, quantitative PCR (Q-RT-PCR)) following manufacturer protocol. Total cDNA was diluted 20 fold in H2O and 10 μL was used in a SYBR green quantitative PCR reaction. Specifically, specific primers were diluted from 100 μM stocks to a final concentration of 0.25 μM into JumpStart Ready Taq SYBR green (Sigma) and 10 μL was mixed with 10 μL diluted cDNA and cycled 40 times with the following cycling parameters on a Step One Plus (Applied Biosystems) real-time thermocycler: […]

[2] = test system: CD80 cell surface expression; assay: Flow cytometry of CD80 cell surface expression; format: cell-based, mouse; conditions: cells untreated, treated with tamoxifen, AdFlpO or AdCre; FIG. 11
Method: Tumors were isolated from Kras^LA2/+; Trp53^LSL/LSL; Rosa26^CreERT2 animals, dissociated with collagenase and trypsin for one hour at 37° C., and then grown in DME plus 10% fetal bovine serum. Human cell lines were obtained from American Type Culture Collection and grown per manufacturer recommendations. Cells were harvested from plasticware using 2 mM EDTA solution. Approximately 1 […] cells were resuspended in % FBS in PBS and incubated with APC conjugated CD80 Ab at a 1:100 dilution (Hamster IgG2 Clone:16-10A1 from BD Biosciences). Cells were scanner on a FASCaliber flow cytometer (BD Biosciences).

SMILES | induction of p21 as measured by Q-RT-PCR [1] | induction of CD80 as measured by Q-RT-PCR ([1]; induction of human CD80 mirrors p21 induction) | CD80 cell surface expression (flow cytometry histograms) [2]
COc1cccc2c1C(=O)c1c(O)c3c(c(O)c1C2=O)C[C@@](O)(C(=O)CO)C[C@@H]3O[C@H]1C[C@H](N)[C@H](O)[C@H](C)O1 [doxorubicin] | induced | induced | –
CC/C(=C(\c1ccccc1)c1ccc(OCCN(C)C)cc1)c1ccccc1 [tamoxifen] | – | – | not tamoxifen dependent
